Where a name gives a salt, the structure may show the parent alone. Ends that are not written are not given here.

The target in test [1] is T1, recombinant human CL receptor/RAMP1 (Homo sapiens, UniProt O60894+Q16602).
T1 construct: expressed in transfected cells; membranes used
Description: Recombinant receptor binding assay (125I-hCGRP). As to conditions: exemplary compounds of the invention. As to the method:
Human CL receptor (Genbank accession number L76380) was subcloned into the expression vector pIREShyg2 (BD Biosciences Clontech) as a 5′NheI and 3′ PmeI fragment. Human RAMP1 (Genbank accession number AJ001014) was subcloned into the expression vector pIRESpuro2 (BD Biosciences Clontech) as a 5′NheI and 3′NotI fragment. […] Cells were subcultured by treatment with 0.25% trypsin with 0.1% EDTA in HBSS. Stable cell line generation was accomplished by co-transfecting 10 μg of DNA with 30 μg Lipofectamine 2000 (Invitrogen) in 75 cm^2 flasks. CL receptor and RAMP1 expression constructs were co-transfected in equal amounts. Twenty-four hours after transfection the cells were diluted and selective medium (growth medium+300 μg/mL hygromycin and 1 μg/mL puromycin) was added the following day. A clonal cell line was generated by single cell deposition utilizing a FACS Vantage SE (Becton Dickinson). Growth medium was adjusted to 150 μg/mL hygromycin and 0.5 μg/mL puromycin for cell propagation.
The cell suspension was disrupted with a laboratory homogenizer and centrifuged at 48,000 g to isolate membranes. The pellets were resuspended in harvest buffer plus 250 mM sucrose and stored at −70° C. […] Scintillation fluid was added and the plates were counted on a Topcount (Packard).

The test system of the next test is middle meningeal artery. As to conditions: rats, electrical stimulation of the dura mater, prior administration (Williamson et al. 1997); cited from earlier work.
For test [2], the system named is facial blood flow. As to conditions: rat, trigeminal ganglion stimulation (Escott et al. 1995); cited from earlier work.
In a further test the test system is migraine. The note with it: cited from earlier work.
The test system of test [3] is facial blood flow. As to conditions: marmoset, electrical stimulation of the trigeminal ganglion (Doods et al. 2000); cited from earlier work.

T1 sequence (Q16602 23-461): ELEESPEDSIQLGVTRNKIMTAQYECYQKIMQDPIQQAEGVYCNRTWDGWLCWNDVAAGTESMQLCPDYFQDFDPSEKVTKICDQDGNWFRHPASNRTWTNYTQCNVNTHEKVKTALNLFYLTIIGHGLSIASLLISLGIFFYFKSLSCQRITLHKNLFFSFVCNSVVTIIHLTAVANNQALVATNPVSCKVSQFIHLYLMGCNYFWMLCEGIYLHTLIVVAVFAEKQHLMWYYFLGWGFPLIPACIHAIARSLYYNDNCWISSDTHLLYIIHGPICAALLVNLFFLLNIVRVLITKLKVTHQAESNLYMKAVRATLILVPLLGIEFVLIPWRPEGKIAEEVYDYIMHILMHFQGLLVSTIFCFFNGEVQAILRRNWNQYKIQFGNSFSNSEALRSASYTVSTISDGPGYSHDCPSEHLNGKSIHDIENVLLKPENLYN
T1 sequence (O60894 27-148): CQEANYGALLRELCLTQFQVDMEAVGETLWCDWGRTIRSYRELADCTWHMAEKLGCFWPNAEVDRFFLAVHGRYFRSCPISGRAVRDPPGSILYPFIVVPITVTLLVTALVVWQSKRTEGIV

Regarding `C[C@@H]1[C@H](c2cc(F)cc(F)c2F)C[C@H](NC(=O)c2cnc3c(c2)C[C@@]2(C3)C(=O)Nc3ncc(C#N)cc32)C(=O)N1CC(F)(F)F` [Example 34], the Ki (as a rule, the dissociation constant of the complex between target and ligand, obtained from inhibition or displacement) in test [1] came out at 0.066 nM. Take “CGRP(8-37) (VTHRLAGLLSRSGGVVKNNFVPTNVGSKAF-NH2; ends and bridges not checked; UniProt P06881 90-119, looked up, fragment) [a peptide CGRP receptor antagonist]”: the “effect on increase of middle meningeal artery diameter” value with middle meningeal artery is given as “blocked”. In the test with facial blood flow [2], the “effect on increased facial blood flow” value is given as “inhibited”.

Take `O=C(N[C@@H]1CC[C@@H](c2cccc(F)c2F)CN(CC(F)(F)F)C1=O)N1CCC(n2c(=O)[nH]c3ncccc32)CC1` [telcagepant]: the antimigraine effectiveness result with migraine (phase III clinical trials (Ho et al. 2008; Connor et al. 2009)) is recorded as “shown antimigraine effectiveness”. In the case of `NCCCC[C@H](NC(=O)[C@@H](Cc1cc(Br)c(O)c(Br)c1)NC(=O)N1CCC(N2Cc3ccccc3NC2=O)CC1)C(=O)N1CCN(c2ccncc2)CC1` [BIBN4096BS], the “effectiveness in treating acute attacks of migraine” value with migraine (clinical trials (Olesen et al. 2004)) is on record as “effective in treating acute attacks of migraine”. The “effect on increase in facial blood flow” value in the test on facial blood flow [3] is “could be blocked”. For the compound `C[C@@H]1[C@H](c2c(F)ccc(F)c2F)C[C@H](NC(=O)c2cnc3c(c2)C[C@@]2(C3)C(=O)Nc3ncc(F)cc32)C(=O)N1CC(F)(F)F` [Example 33, (6S)-5′-Fluoro-N-[(3S,5S,6R)-6-methyl-2-oxo-1-(2,2,2-trifluoroethyl)-5-(2,3,6-trifluorophenyl)piperidin-3-yl]-2′-oxo-1′,2′,5,7-tetrahydrospiro[cyclopenta[b]pyridine-6,3′-pyrrolo[2,3-b]pyridine]-3-carboxamide hydrochloride], the Ki in test [1] stood at 0.011 nM.

(Values after patent US8481556B2, “Piperidinone carboxamide azaindane CGRP receptor antagonists” (Merck, Sharp & Dohms, Corp., priority 2010, dated 2013).)
